Measured values reported in PubChem BioAssay (NCI).
Where “and” joins values, the source holds several entries; their conditions need not be identical. Equal values may be shown once.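 Compound exposure: 48 hours, 5 concentrations, 96-well plates. GI50: concentration for 50% inhibition of growth. TGI marks complete inhibition of growth.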

Tests used:
Assay in all cases: growth of human tumour cells (NCI), 48 h
SF-539 CNS = tested on: SF-539 CNS
SF-268 CNS = tested on: SF-268 CNS
LOX IMVI melanoma = tested on: LOX IMVI melanoma
UO-31 renal = tested on: UO-31 renal
SNB-75 CNS = tested on: SNB-75 CNS
DU-145 prostate = tested on: DU-145 prostate
MOLT-4 leukemia = tested on: MOLT-4 leukemia
T-47D breast = tested on: T-47D breast
SK-MEL-28 melanoma = tested on: SK-MEL-28 melanoma
MDA-MB-435 = tested on: MDA-MB-435

SMILES	GI50 (SF-539 CNS) [µM]	TGI (SF-539 CNS)	GI50 (SF-268 CNS) [µM]	TGI (SF-268 CNS)	GI50 (LOX IMVI melanoma) [µM]	TGI (LOX IMVI melanoma)	GI50 (UO-31 renal)	TGI (UO-31 renal)	GI50 (SNB-75 CNS) [µM]	TGI (SNB-75 CNS)	GI50 (DU-145 prostate) [µM]	TGI (DU-145 prostate)	GI50 (MOLT-4 leukemia) [µM]	TGI (MOLT-4 leukemia)	GI50 (T-47D breast) [µM]	TGI (T-47D breast)	GI50 (SK-MEL-28 melanoma) [µM]	TGI (SK-MEL-28 melanoma)	GI50 (MDA-MB-435) [µM]	TGI (MDA-MB-435)
O=C(COc1cccc(/C=C2\COc3ccccc3C2=O)c1)c1ccccc1	15.6	29 µM	3.23	10.2 µM	1.66	3.12 µM	1.77 µM	3.26 µM	11.5	24.7 µM	6.11	17.4 µM	3.26	11.1 µM	2.53	6.04 µM	3.24	10.7 µM	3.14	10.7 µM
CCC(C)C(=O)O[C@H]1C(=O)O[C@@H]2C[C@H]3C(C)=CC(=O)[C@@H](O)[C@]3(C)[C@H]3[C@@H](O)[C@H](O)[C@@]4(C)OC[C@]32[C@@H]14 (some centres not stated)	–	0.0334 µM	–	0.454 µM	–	< 0.0246 µM	–	0.0859 µM	–	< 0.0299 µM	–	< 0.0164 µM	–	0.267 µM	–	< 0.0105 µM	–	0.542 µM	–	< 0.01 µM
C=C1C[C@@H](O)[C@@H](Br)C(C)(C)[C@]12CCC(C)(Br)C(Cl)C2 (some centres not stated)	16.9	> 50 µM and 31.2 µM	19.1	> 50 µM and 35.8 µM	18.1	> 50 µM and 35 µM	25.4 µM	> 50 µM and 43.7 µM	18.5	> 50 µM and 34.6 µM	18.7	> 50 µM and 36 µM	14.2	> 50 µM and 34.5 µM	19	> 50 µM and 49.3 µM	18	> 50 µM and 36.8 µM	18	> 50 µM and 35.8 µM
CCOC(=O)Nc1ccc2nc(N3CCCCCC3)sc2c1	1.59	> 27.4 µM	8.25	> 100 µM	2.16	> 100 µM	6.17 µM	75.1 µM	2.07	> 31.4 µM	4	> 83.3 µM	3.47	> 92.9 µM	4.7	> 84.3 µM	7.14	> 91.7 µM	0.204	0.567 µM
C=C[C@H]1CN2CCc3c([nH]c4c([C@@H]5CCCN5C)c(O)ccc34)[C@@H]2C[C@@H]1C[C@H]1c2[nH]c3ccccc3c2CCN1C	0.197	3.14 µM and 0.41 µM and 3.09 µM	–	3.03 µM and 3.42 µM	–	3.03 µM and 2.86 µM	1.42 µM and 1.44 µM	2.8 µM [middle of 4 runs]	–	2.47 µM	–	2.88 µM and 3.16 µM	0.412	–	–	3.26 µM and 3.91 µM	–	2.98 µM and 3.3 µM	1.71	2.99 µM and 2.95 µM and 3.15 µM
Cc1cc2c(C(=O)NCC#N)cccc2n1-c1nc2c(c(NCc3ccccc3)n1)CCCC2	0.249	0.764 µM	0.34	1.35 µM	0.18	0.358 µM	0.305 µM	1.11 µM	0.345	1.74 µM	0.384	2.48 µM	0.313	65.6 µM	0.269	1.53 µM	0.406	1.86 µM	0.249	0.809 µM
Nc1nc(=S)c2ncn(C3OC(CO)C(O)C3O)c2[nH]1 (configuration not stated)	0.745	> 79.2 µM	0.755	> 100 µM	0.301	11.8 µM	0.77 µM	> 100 µM	0.688	> 100 µM	0.542	> 100 µM	0.433	10.3 µM	0.511	83.3 µM	13.7	> 100 µM	1.02	> 69.6 µM
CC(=O)N(C)c1cc(NCc2ccccc2)ccc1OCc1ccccc1	–	32 µM	–	30.4 µM	–	36.2 µM	–	28 µM	–	41.5 µM	–	32.7 µM	–	50.4 µM	–	> 100 µM	–	35.4 µM	–	32.2 µM
COc1ccc2nc3cc(Cl)ccc3c(NCCNCC(O)CO)c2c1 (configuration not stated)	1.23	9.14 µM	1.03	13.1 µM	0.5	2.35 µM	3.62 µM	17.4 µM	1.14	11.1 µM	1.88	11.4 µM	0.408	10.7 µM	1.4	6.86 µM	2.19	5.43 µM	1.44	4.61 µM
CN1CCN(Cc2ccc(NC(=O)c3cncc(C#Cc4c(N)ncc5c(F)cccc45)c3)cc2C(F)(F)F)CC1	0.593	1.22 µM	0.741	1.61 µM	0.646	1.35 µM	0.712 µM	1.42 µM	0.827	1.55 µM	0.832	1.52 µM	0.57	1.5 µM	1.94	6.38 µM	0.831	1.56 µM	0.597	1.24 µM
Nc1c(C(=O)c2ccc(C#CCN3CCOCC3)cc2)cnn1-c1ccc(F)cc1	> 25	> 25 µM	> 25	> 25 µM	> 25	> 25 µM	> 25 µM	> 25 µM	> 25	> 25 µM	> 25	> 25 µM	> 25	> 25 µM	> 25	> 25 µM	> 25	> 25 µM	> 25	> 25 µM
C[C@]12CCCN1CC1=NNC(=O)c3cc(F)cc4[nH]c2c1c34	17.6	57.7 µM	19	61.4 µM	7.64	60.3 µM	16 µM	> 100 µM	13.6	35.9 µM	32.6	> 100 µM	22.3	> 100 µM	20.6	91.9 µM	24.9	87.2 µM	23.7	80.6 µM
Cc1ccc(/C=C(/C#N)n2nnc3ncccc32)cc1	2.47	9.61 µM	3.08	15.1 µM	3.08	11.3 µM	2.01 µM	12.4 µM	2.98	> 100 µM	3.01	13.7 µM	3.41	19 µM	1.92	15.8 µM	2.17	31.3 µM	0.378	13.4 µM
CS(=O)(=O)c1ccc2c(c1)C(=O)c1c-2n(CCCBr)c(=O)c2cc([N+](=O)[O-])ccc12	24	> 100 µM	9.59	> 100 µM	5.77	> 100 µM	3.12 µM	> 100 µM	12.8	42.2 µM	6.25	> 100 µM	1.94	> 100 µM	4.88	> 100 µM	> 100	> 100 µM	82.6	> 100 µM
COC(=O)CC1C2(C)C3=C(C)C(c4ccoc4)CC3OC2C2OC(=O)C3(C)C=CC(=O)C1(C)C23 (configuration not stated)	–	3.03 µM	–	7.62 µM	–	2.3 µM	–	2.52 µM	–	12.3 µM	–	2.06 µM	–	1.77 µM	–	2.92 µM	–	2.66 µM	–	2.69 µM
CCNC(=O)Oc1ccc(/C(=C(\C)c2ccc(Cl)cc2)c2ccc(OCCN(CC)CC)cc2)cc1	1.78	3.44 µM	5.99	21 µM	1.94	4.02 µM	1.54 µM	3.62 µM	2.45	18.4 µM	11.1	24.2 µM	3.07	11 µM	2.16	12.5 µM	1.74	3.52 µM	3.44	12.8 µM
CCCCOC(=O)/C=C\C(=O)NC(N)=O	24.6	70 µM	22.1	61 µM	17.4	32.4 µM	13.4 µM	31 µM	18	74.9 µM	10.1	> 100 µM	38.3	> 100 µM	14.5	95.5 µM	19.1	42.5 µM	24.7	85 µM
Clc1ccc(-c2nc3c(-c4ccccc4)nc(-c4ccccc4)cn3c2-c2ccc(Cl)cc2)cc1	> 100	> 100 µM	> 100	> 100 µM	> 100	> 100 µM	> 100 µM	> 100 µM	91.4	> 100 µM	> 100	> 100 µM	> 100	> 100 µM	> 100	> 100 µM	> 100	> 100 µM	> 100	> 100 µM
COc1ccc(C2=NN(C=O)C(c3ccc(OS(=O)(=O)c4ccc(C)cc4)c(OC)c3)C2)cc1 (configuration not stated)	8.62	> 100 µM	17.2	> 100 µM	9.41	> 100 µM	3.39 µM	> 100 µM	3.33	25.1 µM	74.9	> 100 µM	5.23	> 100 µM	2.27	> 100 µM	10.6	> 100 µM	2.4	9.97 µM
CCSc1nc(NC(C)c2ccccc2)c2cnn(CO)c2n1 (configuration not stated)	94.4	> 100 µM	> 100	> 100 µM	37	> 100 µM	66.5 µM	> 100 µM	> 100	> 100 µM	> 100	> 100 µM	> 100	> 100 µM	> 100	> 100 µM	87.2	> 100 µM	21.1	> 100 µM
NC(=O)c1cc(I)ccc1NC(=O)/C=C/c1ccccc1Cl	0.41	2.83 µM	0.64	31 µM	1.82	98.7 µM	1.79 µM	31.8 µM	0.995	25.3 µM	0.837	5.64 µM	0.765	–	3.13	> 90.8 µM	0.374	21.8 µM	0.204	0.578 µM
CON=C1C[C@]2(C[C@@H]3C[C@@H](C/C=C(\C)C[C@@H](C)/C=C/C=C4\CO[C@@H]5[C@H](O)C(C)=C[C@@H](C(=O)O3)[C@]45O)O2)O[C@H](/C(C)=C/C(C)C)[C@H]1C	20.4	36.9 µM	13	27.5 µM	13.3	26.5 µM	11.2 µM	23.3 µM	18.7	35.3 µM	7.55	20.1 µM	3.02	8.53 µM	8.9	22.2 µM	17.5	31.7 µM	7.98	21.5 µM
c1ccc(COCC[P+](c2ccccc2)(c2ccccc2)c2ccccc2)cc1	2.4	14.5 µM	3.17	23.1 µM	1.87	6.05 µM	4.82 µM	28.4 µM	1.44	6.76 µM	2.01	26.2 µM	2.1	12.4 µM	0.259	21.6 µM	1.59	12.2 µM	0.601	6.28 µM
O=C(CN1CCN(CCN2C(=O)c3cccc4cccc(c34)C2=O)CC1)Nc1ccc2ncsc2c1	6.43	20.5 µM	6.07	25 µM	4.93	20.4 µM	6.21 µM	30.8 µM	9.44	> 100 µM	5.92	19.6 µM	2.87	15.3 µM	5.12	30.5 µM	11	23.8 µM	5.52	20.4 µM
CS(=O)(=O)O[C@H]1C(=O)N(c2cc3c4ccccc4ccc3c3ccccc23)[C@@H]1c1ccccn1	0.316	2.96 µM	0.707	> 100 µM	0.588	> 100 µM	0.76 µM	> 100 µM	0.248	> 100 µM	0.416	> 100 µM	2.22	> 100 µM	0.44	> 100 µM	0.783	> 100 µM	0.217	0.597 µM
